The text below walks through data of BindingDB's records for doi:10.1021/jm049787k (Pharmaceutical Research Institute, 2004).

The assay deals with Corticotropin-releasing factor receptor 2 (Sus scrofa). Nature of the assay: Inhibition of [125I]- sauvagine binding to corticotropin releasing factor receptor 2 of porcine choroid plexus.

SMILES strings stand for the structures.

A word on the IC50: it is the concentration that gives 50% inhibition. A lower IC50 goes with inhibition by little substance. As for `CCc1nc2c(n1C(C1CC1)C1CC1)C(=O)N(C)CN2c1ccc(Cl)cc1Cl` [3-(2,4-Dichloro-phenyl)-7-dicyclopropylmethyl-8-ethyl-1-methyl-1,2,3,7-tetrahydro-purin-6-one], the 50% inhibitory concentration (IC50) was more than 10 µM.
